Experimental data as given in US9187524B2, “Broad spectrum antibiotic arylomycin analogs” (The Scripps Research Institute, priority 2010, dated 2015).
Values after ≈ are worked out from the molar mass of the structure shown. Like-named read-outs stand apart in the source and are kept apart here.

Assays:
[1] = system: wild type S. epidermidis RP62A; assay: microbe, parasite or virus in culture; format: cell-based, Staphylococcus epidermidis; settings: Staphylococcus epidermidis
[2] = system: lepB(P84L) E. coli MG1655; assay: microbe, parasite or virus in culture; format: cell-based, Escherichia coli; settings: for MIC: Escherichia coli
[3] = system: S. pneumoniae; assay: microbe, parasite or virus in culture; format: cell-based, Streptococcus pneumoniae; settings: for MIC: Streptococcus pneumoniae
[4] = system: C. efficiens; assay: microbe, parasite or virus in culture; format: cell-based; settings: Corynebacterium efficiens
[5] = system: C. glutamicum; assay: microbe, parasite or virus in culture; format: cell-based, Corynebacterium glutamicum; settings: for MIC: Corynebacterium glutamicum
[6] = system: L. lactis; assay: microbe, parasite or virus in culture; format: cell-based, Lactococcus lactis
[7] = system: P. aeruginosa PAS2006 (SPase P84S); assay: microbe, parasite or virus in culture; format: cell-based; settings: Pseudomonas aeruginosa, read-out: MIC, P. aeruginosa PAS2006
[8] = system: Bacillus subtilis; assay: microbe, parasite or virus in culture; format: cell-based; settings: Table 13
[9] = system: Lactobacillus acidophilus; assay: microbe, parasite or virus in culture; format: cell-based; settings: Table 13
[10] = system: Clostridium perfringens; assay: microbe, parasite or virus in culture; format: cell-based; settings: read-out: MIC, Clostridium perfringens
[11] = system: Bacteroides fragilis; assay: microbe, parasite or virus in culture; format: cell-based; settings: Table 13
[12] = system: E. coli strains harboring the indicated amino acid at SPase residue 84; assay: microbe, parasite or virus in culture; format: cell-based; settings: Escherichia coli
[13] = molecular target: T1, P84S variant of truncated E. coli SPase (Escherichia coli, UniProt P00803, P84S); assay: biochemical; format: binding
T1 construct: a truncated wild type E. coli SPase that lacks the N-terminal membrane helices; made in house; host or cells: E. coli BL21(DE3)

[14] = molecular target: T2, full-length wild type E. coli SPase (Pro-variant) (Escherichia coli, UniProt P00803); assay: biochemical; format: binding
T2 construct: Full length His-tagged E. coli SPase proteins were expressed in BL21(DE3); His6; made in house; host or cells: E. coli BL21(DE3)

[15] = system: E. coli and P. aeruginosa serine mutants; assay: MIC after permeabilizing with polymyxin B nonapeptide; format: cell-based

T1 sequence (P00803 76-324, looked up, stated change not applied): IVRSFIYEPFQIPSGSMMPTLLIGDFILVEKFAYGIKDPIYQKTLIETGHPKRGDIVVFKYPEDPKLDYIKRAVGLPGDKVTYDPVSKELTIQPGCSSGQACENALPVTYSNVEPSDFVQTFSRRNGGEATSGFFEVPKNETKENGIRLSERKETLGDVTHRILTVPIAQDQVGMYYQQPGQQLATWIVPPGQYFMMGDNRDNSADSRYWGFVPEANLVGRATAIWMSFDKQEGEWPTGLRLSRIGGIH

CCCCCCCCCCCCCCCC(=O)N(C)[C@H](CO)C(=O)N[C@H](C)C(=O)NCC(=O)N(C)[C@@H]1C(=O)N[C@@H](C)C(=O)N[C@H](C(=O)O)Cc2ccc(O)c(c2)-c2cc1ccc2O [Arylomycin C16]
MIC ([1]; Table 11, […], read-out: MIC, S. epidermidis RP62A): 0.25 µg/mL (≈ 0.284 µM)
MIC ([1]; Table 13, […], read-out: MIC, Staphylococcus epidermidis): 0.25 µg/mL (≈ 0.284 µM)
MIC ([1]; read-out: MIC, S. epidermidis): 0.25 µg/mL (≈ 0.284 µM)
MIC ([1]; read-out: MIC, Sensitive Se): 0.5 µg/mL (≈ 0.567 µM)
MIC ([2]; MG1655, read-out: MIC, E. coli P84L): 2 µg/mL (≈ 2.27 µM)
MIC ([2]; MG1655, read-out: MIC, Sensitive Ec): 0.5 µg/mL (≈ 0.567 µM)
MIC, Sensitive Ec ([2]; Table 2B, SPase without resistance-conferring Pro): 0.5 µg/mL (≈ 0.567 µM)
MIC ([3]; Table 4, read-out: MIC, S. pneumoniae): 8 µg/mL (≈ 9.08 µM)
MIC ([3]; Table 13, […], read-out: MIC, Streptococcus pneumoniae): 16 µg/mL (≈ 18.2 µM)
MIC, S. pneumoniae ([3]; Table 14): 8 µg/mL (≈ 9.08 µM)
MIC ([4]; Table 4, read-out: MIC, C. efficiens): 16 µg/mL (≈ 18.2 µM)
MIC ([4]; Table 13, […], read-out: MIC, Corynebacterium efficiens): > 64 µg/mL
MIC ([4]; text b755, read-out: MIC, Corynebacterium efficiens): 16 µg/mL (≈ 18.2 µM)
MIC ([5]; Table 4, read-out: MIC, C. glutamicum): 2 µg/mL (≈ 2.27 µM)
MIC ([5]; text b755, read-out: MIC, Corynebacterium glutamicum): 2 µg/mL (≈ 2.27 µM)
MIC, Corynebacterium glutamicum ([5]; Table 13, […]): 2 µg/mL (≈ 2.27 µM)
MIC ([6]; Lactococcus lactis, Table 4): 16 µg/mL (≈ 18.2 µM)
MIC, Lactococcus lactis ([6]; Table 13, multiple values: different strains): 16 µg/mL (≈ 18.2 µM)
sensitivity of Lactococcus lactis spp. cremonis ([6]; one SPase with Leu29): sensitive
sensitivity of Lactococcus lactis spp. lactii ([6]; single SPase with Leu29): resistant
MIC [7]: 8 µg/mL (≈ 9.08 µM)
MIC [8]: > 128 µg/mL
MIC [9]: > 128 µg/mL
MIC [10]: > 16 µg/mL
MIC [11]: > 16 µg/mL
MIC ([12]; read-out: MIC, E. coli SPase residue 84 His variant): 4 µg/mL (≈ 4.54 µM)
MIC ([12]; read-out: MIC, E. coli SPase residue 84 Phe or His variant): 2 µg/mL (≈ 2.27 µM)
MIC ([12]; read-out: MIC, E. coli with Pro at SPase residue 84): > 256 µg/mL
MIC ([12]; read-out: MIC, E. coli with any other amino acid at SPase residue 84): ≤ 16 µg/mL
Kd [13]: 39 ± 15 nM
Kd [14]: 60 ± 16 nM
decrease of MIC on permeabilizing with polymyxin B nonapeptide [15]: ≤ 4 fold
